Experimental data taken from ChEMBL document CHEMBL1177794, “Broad spectrum alkynyl inhibitors of T315I Bcr-Abl” (Bioorg Med Chem Lett, 2010).

Assays:
[1] = biological target: Non-receptor tyrosine-protein kinase TYK2 (Homo sapiens) (UniProt P29597); assay: Inhibition of TYK2 JH2 pseudokinase domain at 10 uM; conditions: values are per cent of control
[2] = biological target: Dual specificity mitogen-activated protein kinase kinase 2 (Homo sapiens) (UniProt P36507); assay: Inhibition of MEK2 at 10 uM; conditions: values are per cent of control
[3] = biological target: Serine/threonine-protein kinase DCLK3 (Homo sapiens) (UniProt Q9C098); assay: Inhibition of DCAMKL3 at 10 uM; conditions: values are per cent of control
[4] = biological target: Bone morphogenetic protein receptor type-1A (Homo sapiens) (UniProt P36894); assay: Inhibition of BMPR1A at 10 uM; conditions: values are per cent of control
[5] = biological target: Mitogen-activated protein kinase kinase kinase 12 (Homo sapiens) (UniProt Q12852); assay: Inhibition of DLK at 10 uM; values are per cent of control
[6] = tested on: Epidermal growth factor receptor (Homo sapiens), P00533 [L861Q]; assay: Inhibition of EGFR L861Q mutant at 10 uM; values are per cent of control
[7] = tested on: Tyrosine-protein kinase ABL1 (Homo sapiens), P00519 [M351T]; assay: Inhibition of phosphorylated ABL1 M351T mutant at 10 uM; conditions: values are per cent of control
[8] = tested on: Proto-oncogene tyrosine-protein kinase receptor Ret (Homo sapiens), P07949 [M918T]; assay: Inhibition of RET M918T mutant at 10 uM; values are per cent of control
[9] = biological target: Interleukin-1 receptor-associated kinase 3 (Homo sapiens) (UniProt Q9Y616); assay: Inhibition of IRAK3 at 10 uM; conditions: values are per cent of control
[10] = biological target: Serine/threonine-protein kinase 32A (Homo sapiens) (UniProt Q8WU08); assay: Inhibition of YANK1 at 10 uM; conditions: values are per cent of control
[11] = biological target: NT-3 growth factor receptor (Homo sapiens) (UniProt Q16288); assay: Inhibition of TRKC at 10 uM; conditions: values are per cent of control
[12] = tested on: Serine/threonine-protein kinase B-raf (Homo sapiens), P15056 [V600E]; assay: Inhibition of BRAF V600E mutant at 10 uM; conditions: values are per cent of control
[13] = biological target: Mitogen-activated protein kinase kinase kinase kinase 3 (Homo sapiens) (UniProt Q8IVH8); assay: Inhibition of MAP4K3 at 10 uM; values are per cent of control
[14] = biological target: Focal adhesion kinase 1 (Homo sapiens) (UniProt Q05397); assay: Inhibition of FAK at 10 uM; conditions: values are per cent of control
[15] = biological target: Mitogen-activated protein kinase kinase kinase 10 (Homo sapiens) (UniProt Q02779); assay: Inhibition of MLK2 at 10 uM
[16] = biological target: Cyclin-dependent kinase 5 (Homo sapiens) (UniProt Q00535); assay: Inhibition of CDK5 at 10 uM; values are per cent of control
[17] = biological target: Myosin light chain kinase family member 4 (Homo sapiens) (UniProt Q86YV6); assay: Inhibition of MYLK4 at 10 uM
[18] = biological target: Tyrosine-protein kinase FRK (Homo sapiens) (UniProt P42685); assay: Inhibition of FRK at 10 uM; conditions: values are per cent of control
[19] = biological target: Tyrosine-protein kinase ITK/TSK (Homo sapiens) (UniProt Q08881); assay: Inhibition of ITK at 10 uM; values are per cent of control
[20] = biological target: Serine/threonine-protein kinase ULK3 (Homo sapiens) (UniProt Q6PHR2); assay: Inhibition of ULK3 at 10 uM; conditions: values are per cent of control
[21] = biological target: Tyrosine-protein kinase Fer (Homo sapiens) (UniProt P16591); assay: Inhibition of FER at 10 uM; conditions: values are per cent of control
[22] = biological target: RAC-beta serine/threonine-protein kinase (Homo sapiens) (UniProt P31751); assay: Inhibition of AKT2 at 10 uM; conditions: values are per cent of control
[23] = biological target: ALK tyrosine kinase receptor (Homo sapiens) (UniProt Q9UM73); assay: Inhibition of ALK at 10 uM; values are per cent of control
[24] = biological target: Mitogen-activated protein kinase 10 (Homo sapiens) (UniProt P53779); assay: Inhibition of JNK3 at 10 uM; values are per cent of control
[25] = biological target: Serine/threonine-protein kinase Nek3 (Homo sapiens) (UniProt P51956); assay: Inhibition of NEK3 at 10 uM
[26] = biological target: Serine/threonine-protein kinase 4 (Homo sapiens) (UniProt Q13043); assay: Inhibition of MST1 at 10 uM
[27] = biological target: Ribosomal protein S6 kinase alpha-2 (Homo sapiens) (UniProt Q15349); assay: Inhibition of RSK3 N-terminal domain1 at 10 uM
[28] = biological target: Vascular endothelial growth factor receptor 3 (Homo sapiens) (UniProt P35916); assay: Inhibition of FLT4 at 10 uM; conditions: values are per cent of control
[29] = biological target: Serine/threonine-protein kinase 35 (Homo sapiens) (UniProt Q8TDR2); assay: Inhibition of STK35 at 10 uM
[30] = biological target: Hepatocyte growth factor receptor (Homo sapiens) (UniProt P08581); assay: Inhibition of MET at 10 uM
[31] = biological target: Serine/threonine-protein kinase/endoribonuclease IRE1 (Homo sapiens) (UniProt O75460); assay: Inhibition of ERN1 at 10 uM; conditions: values are per cent of control
[32] = biological target: SRSF protein kinase 3 (Homo sapiens) (UniProt Q9UPE1); assay: Inhibition of SRPK3 at 10 uM
[33] = biological target: Serine/threonine-protein kinase DCLK2 (Homo sapiens) (UniProt Q8N568); assay: Inhibition of DCAMKL2 at 10 uM; conditions: values are per cent of control
[34] = tested on: Phosphatidylinositol 4,5-bisphosphate 3-kinase catalytic subunit alpha isoform (Homo sapiens), P42336 [C420R]; assay: Inhibition of PIK3CA C420R mutant at 10 uM
[35] = biological target: Mitogen-activated protein kinase kinase kinase 13 (Homo sapiens) (UniProt O43283); assay: Inhibition of LZK at 10 uM; values are per cent of control
[36] = biological target: Ribosomal protein S6 kinase alpha-1 (Homo sapiens) (UniProt Q15418); assay: Inhibition of RSK1 N-terminal domain1 at 10 uM
[37] = biological target: Tyrosine-protein kinase JAK1 (Homo sapiens) (UniProt P23458); assay: Inhibition of JAK1 JH2 pseudokinase domain at 10 uM; values are per cent of control
[38] = biological target: Serine/threonine-protein kinase 24 (Homo sapiens) (UniProt Q9Y6E0); assay: Inhibition of MST3 at 10 uM
[39] = biological target: Vascular endothelial growth factor receptor 1 (Homo sapiens) (UniProt P17948); assay: Inhibition of FLT1 at 10 uM; values are per cent of control
[40] = biological target: Cyclin-dependent kinase 11B (Homo sapiens) (UniProt P21127); assay: Inhibition of CDC2L1 at 10 uM; values are per cent of control
[41] = biological target: Ribosomal protein S6 kinase alpha-1 (Homo sapiens) (UniProt Q15418); assay: Inhibition of RSK1 C-terminal domain2 at 10 uM

Sequence of Ribosomal protein S6 kinase alpha-1 (Homo sapiens) (Q15418 whole entry, the tested form may be a part): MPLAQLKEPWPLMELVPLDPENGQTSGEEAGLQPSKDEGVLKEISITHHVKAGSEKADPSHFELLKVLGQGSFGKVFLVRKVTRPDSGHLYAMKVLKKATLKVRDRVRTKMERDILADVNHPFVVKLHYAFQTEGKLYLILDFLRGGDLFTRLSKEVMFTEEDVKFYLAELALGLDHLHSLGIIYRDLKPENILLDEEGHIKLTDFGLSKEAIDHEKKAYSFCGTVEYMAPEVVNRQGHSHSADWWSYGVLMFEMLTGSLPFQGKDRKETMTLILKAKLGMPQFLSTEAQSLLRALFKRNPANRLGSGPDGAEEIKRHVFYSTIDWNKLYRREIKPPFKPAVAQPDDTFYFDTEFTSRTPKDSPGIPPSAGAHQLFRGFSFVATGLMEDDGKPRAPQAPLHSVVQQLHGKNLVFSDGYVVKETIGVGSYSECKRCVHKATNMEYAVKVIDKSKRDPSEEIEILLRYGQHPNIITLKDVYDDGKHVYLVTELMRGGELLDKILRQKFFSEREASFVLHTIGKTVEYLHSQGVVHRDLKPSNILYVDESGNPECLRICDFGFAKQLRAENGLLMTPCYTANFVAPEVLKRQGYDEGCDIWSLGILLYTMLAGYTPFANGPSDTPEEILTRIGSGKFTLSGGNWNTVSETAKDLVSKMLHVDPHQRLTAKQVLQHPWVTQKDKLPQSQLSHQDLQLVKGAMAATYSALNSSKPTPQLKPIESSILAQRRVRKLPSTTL
Sequence of Tyrosine-protein kinase ITK/TSK (Homo sapiens) (Q08881 whole entry): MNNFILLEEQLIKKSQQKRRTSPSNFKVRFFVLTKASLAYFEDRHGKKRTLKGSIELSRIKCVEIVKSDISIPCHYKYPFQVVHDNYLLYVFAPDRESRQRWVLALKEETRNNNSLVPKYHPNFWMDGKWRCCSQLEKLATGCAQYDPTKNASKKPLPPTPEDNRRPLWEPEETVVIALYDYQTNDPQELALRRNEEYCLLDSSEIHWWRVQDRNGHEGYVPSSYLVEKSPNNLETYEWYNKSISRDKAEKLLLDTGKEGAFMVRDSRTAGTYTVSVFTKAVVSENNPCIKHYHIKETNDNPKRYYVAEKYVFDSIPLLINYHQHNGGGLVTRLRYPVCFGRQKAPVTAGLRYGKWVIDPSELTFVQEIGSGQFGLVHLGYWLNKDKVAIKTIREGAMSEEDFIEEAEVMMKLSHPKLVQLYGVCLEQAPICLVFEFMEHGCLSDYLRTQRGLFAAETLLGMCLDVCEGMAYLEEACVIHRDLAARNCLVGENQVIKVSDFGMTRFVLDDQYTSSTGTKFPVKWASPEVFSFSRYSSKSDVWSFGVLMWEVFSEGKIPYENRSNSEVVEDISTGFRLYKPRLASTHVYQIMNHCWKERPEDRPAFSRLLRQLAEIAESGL
Sequence of Tyrosine-protein kinase Fer (Homo sapiens) (P16591 whole entry, looked up): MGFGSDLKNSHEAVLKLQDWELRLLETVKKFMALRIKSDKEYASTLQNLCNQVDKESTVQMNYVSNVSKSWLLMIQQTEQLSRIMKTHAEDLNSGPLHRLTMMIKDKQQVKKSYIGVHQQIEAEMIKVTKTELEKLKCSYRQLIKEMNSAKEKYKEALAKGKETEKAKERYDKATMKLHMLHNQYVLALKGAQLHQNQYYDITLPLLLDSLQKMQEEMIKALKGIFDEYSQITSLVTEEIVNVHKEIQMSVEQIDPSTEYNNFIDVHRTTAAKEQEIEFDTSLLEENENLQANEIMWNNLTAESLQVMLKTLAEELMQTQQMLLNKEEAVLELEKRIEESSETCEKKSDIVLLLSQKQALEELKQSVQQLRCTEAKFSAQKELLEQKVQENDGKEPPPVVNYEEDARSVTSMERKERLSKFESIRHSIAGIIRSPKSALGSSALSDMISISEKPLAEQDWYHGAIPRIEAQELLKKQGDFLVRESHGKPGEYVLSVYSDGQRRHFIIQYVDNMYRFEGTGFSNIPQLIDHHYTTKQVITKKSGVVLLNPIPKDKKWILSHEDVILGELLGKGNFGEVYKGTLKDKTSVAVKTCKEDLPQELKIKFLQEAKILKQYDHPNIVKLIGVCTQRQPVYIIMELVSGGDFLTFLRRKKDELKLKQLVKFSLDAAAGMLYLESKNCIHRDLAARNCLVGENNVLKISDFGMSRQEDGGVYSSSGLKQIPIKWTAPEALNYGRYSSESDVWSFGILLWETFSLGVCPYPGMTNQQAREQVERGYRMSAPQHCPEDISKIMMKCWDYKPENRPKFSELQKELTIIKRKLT
Sequence of Mitogen-activated protein kinase kinase kinase 13 (Homo sapiens) (O43283 whole entry, the tested form may be a part): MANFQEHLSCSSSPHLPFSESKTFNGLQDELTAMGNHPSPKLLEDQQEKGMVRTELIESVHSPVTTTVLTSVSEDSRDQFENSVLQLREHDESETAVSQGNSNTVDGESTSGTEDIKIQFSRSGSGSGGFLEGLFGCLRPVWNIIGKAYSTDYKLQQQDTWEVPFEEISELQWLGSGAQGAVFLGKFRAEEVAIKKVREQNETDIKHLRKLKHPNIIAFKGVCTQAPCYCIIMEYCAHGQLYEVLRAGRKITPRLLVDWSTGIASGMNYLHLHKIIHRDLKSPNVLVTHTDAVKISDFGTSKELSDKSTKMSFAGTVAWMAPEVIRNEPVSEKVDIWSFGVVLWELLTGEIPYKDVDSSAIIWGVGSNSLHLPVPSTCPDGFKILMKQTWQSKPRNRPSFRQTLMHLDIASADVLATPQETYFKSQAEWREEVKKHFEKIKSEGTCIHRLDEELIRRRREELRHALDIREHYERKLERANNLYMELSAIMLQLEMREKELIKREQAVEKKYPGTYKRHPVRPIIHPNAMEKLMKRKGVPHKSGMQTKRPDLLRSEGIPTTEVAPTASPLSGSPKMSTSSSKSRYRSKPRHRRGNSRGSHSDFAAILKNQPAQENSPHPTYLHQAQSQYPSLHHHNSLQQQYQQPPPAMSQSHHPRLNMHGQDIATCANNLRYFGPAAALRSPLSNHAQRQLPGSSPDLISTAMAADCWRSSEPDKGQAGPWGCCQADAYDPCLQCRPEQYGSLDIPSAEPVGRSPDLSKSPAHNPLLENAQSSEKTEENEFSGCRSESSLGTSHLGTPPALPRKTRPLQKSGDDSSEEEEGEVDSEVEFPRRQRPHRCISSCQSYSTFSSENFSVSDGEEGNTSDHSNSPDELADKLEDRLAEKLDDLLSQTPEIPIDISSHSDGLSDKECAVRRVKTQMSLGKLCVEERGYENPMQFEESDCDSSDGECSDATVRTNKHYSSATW
Sequence of Mitogen-activated protein kinase 10 (Homo sapiens) (P53779 whole entry): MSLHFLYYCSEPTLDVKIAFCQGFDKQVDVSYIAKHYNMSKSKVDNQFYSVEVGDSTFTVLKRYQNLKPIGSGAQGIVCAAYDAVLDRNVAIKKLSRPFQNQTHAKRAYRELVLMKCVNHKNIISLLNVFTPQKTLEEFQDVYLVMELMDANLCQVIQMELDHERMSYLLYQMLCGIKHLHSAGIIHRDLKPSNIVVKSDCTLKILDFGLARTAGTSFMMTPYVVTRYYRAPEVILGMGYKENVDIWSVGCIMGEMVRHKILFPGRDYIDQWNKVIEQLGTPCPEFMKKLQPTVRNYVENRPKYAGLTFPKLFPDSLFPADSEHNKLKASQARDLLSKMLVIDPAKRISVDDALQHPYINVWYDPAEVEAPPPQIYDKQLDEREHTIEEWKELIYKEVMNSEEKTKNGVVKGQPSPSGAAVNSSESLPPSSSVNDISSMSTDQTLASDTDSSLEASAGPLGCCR
Sequence of Serine/threonine-protein kinase DCLK3 (Homo sapiens) (Q9C098 whole entry): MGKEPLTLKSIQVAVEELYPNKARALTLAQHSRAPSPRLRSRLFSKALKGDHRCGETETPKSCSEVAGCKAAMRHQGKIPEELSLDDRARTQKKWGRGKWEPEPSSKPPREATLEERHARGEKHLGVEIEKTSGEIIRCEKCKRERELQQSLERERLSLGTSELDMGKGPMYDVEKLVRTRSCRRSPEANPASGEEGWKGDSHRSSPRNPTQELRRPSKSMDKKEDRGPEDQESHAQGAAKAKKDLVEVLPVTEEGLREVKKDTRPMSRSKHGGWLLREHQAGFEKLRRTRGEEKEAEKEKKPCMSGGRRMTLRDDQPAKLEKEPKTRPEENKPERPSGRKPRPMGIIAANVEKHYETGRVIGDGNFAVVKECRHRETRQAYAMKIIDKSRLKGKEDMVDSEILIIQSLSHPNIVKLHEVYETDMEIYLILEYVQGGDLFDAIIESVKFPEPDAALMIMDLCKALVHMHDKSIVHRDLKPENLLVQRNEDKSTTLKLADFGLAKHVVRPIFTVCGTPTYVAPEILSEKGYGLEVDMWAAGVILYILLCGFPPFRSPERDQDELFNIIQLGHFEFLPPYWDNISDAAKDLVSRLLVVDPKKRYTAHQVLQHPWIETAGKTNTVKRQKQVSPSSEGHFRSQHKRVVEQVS
Sequence of RAC-beta serine/threonine-protein kinase (Homo sapiens) (P31751 whole entry): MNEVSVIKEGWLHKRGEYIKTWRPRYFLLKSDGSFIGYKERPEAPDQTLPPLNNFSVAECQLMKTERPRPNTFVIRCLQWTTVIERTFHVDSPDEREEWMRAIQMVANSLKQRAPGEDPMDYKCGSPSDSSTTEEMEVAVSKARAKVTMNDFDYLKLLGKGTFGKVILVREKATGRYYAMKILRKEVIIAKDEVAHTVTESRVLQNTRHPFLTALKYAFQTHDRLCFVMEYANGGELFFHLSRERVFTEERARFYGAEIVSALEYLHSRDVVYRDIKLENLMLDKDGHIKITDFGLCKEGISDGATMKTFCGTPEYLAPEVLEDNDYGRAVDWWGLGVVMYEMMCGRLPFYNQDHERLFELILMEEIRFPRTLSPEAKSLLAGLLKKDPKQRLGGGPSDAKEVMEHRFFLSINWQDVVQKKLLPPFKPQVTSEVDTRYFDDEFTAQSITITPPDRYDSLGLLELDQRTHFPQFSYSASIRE
Sequence of Cyclin-dependent kinase 5 (Homo sapiens) (Q00535 whole entry, looked up): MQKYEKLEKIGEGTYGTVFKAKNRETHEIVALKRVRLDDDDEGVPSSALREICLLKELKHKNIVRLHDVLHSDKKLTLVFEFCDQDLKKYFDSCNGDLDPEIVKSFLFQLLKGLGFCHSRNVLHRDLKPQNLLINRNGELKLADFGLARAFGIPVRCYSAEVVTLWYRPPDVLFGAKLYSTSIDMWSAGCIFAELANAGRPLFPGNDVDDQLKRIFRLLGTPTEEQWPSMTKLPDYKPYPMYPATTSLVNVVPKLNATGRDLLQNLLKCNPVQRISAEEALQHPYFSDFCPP

Q: With `CCN1CCN(Cc2ccc(NC(=O)c3ccc(C)c(C#Cc4cccnc4)c3)cc2C(F)(F)F)CC1` as the molecule, how does the residual binding, % of control [1] read?
A: 99%

Q: What about the residual binding, % of control [2] of the same molecule?
A: 64%

Q: What about the residual binding, % of control [3] of the same molecule?
A: 100%

Q: What about the residual binding, % of control [4] of the same molecule?
A: 81%

Q: And the level, % of control [5]?
A: 9.8%

Q: And the level, % of control [6]?
A: 0.2%

Q: And the residual binding, % of control [7]?
A: 2.6%

Q: And the level, % of control [8]?
A: 0%

Q: What about the residual binding, % of control [9] of the same molecule?
A: 100%

Q: What about the residual binding, % of control [10] of the same molecule?
A: 81%

Q: And the residual binding, % of control [11]?
A: 0.35%

Q: And the residual binding, % of control [12]?
A: 0.05%

Q: What about the level, % of control [13] of the same molecule?
A: 2.6%

Q: And the residual binding, % of control [14]?
A: 75%

Q: What about the inhibition [15] of the same molecule?
A: 40%

Q: What about the level, % of control [16] of the same molecule?
A: 10%

Q: And the inhibition [17]?
A: 68%

Q: What about the residual binding, % of control [18] of the same molecule?
A: 0.15%

Q: And the level, % of control [19]?
A: 44%

Q: And the residual binding, % of control [20]?
A: 0.25%

Q: And the residual binding, % of control [21]?
A: 11%

Q: And the residual binding, % of control [22]?
A: 30%

Q: What about the level, % of control [23] of the same molecule?
A: 23%

Q: And the level, % of control [24]?
A: 0.95%

Q: And the inhibition [25]?
A: 53%

Q: What about the inhibition [26] of the same molecule?
A: 23%

Q: What about the inhibition [27] of the same molecule?
A: 9.5%

Q: What about the residual binding, % of control [28] of the same molecule?
A: 0%

Q: And the inhibition [29]?
A: 1.6%

Q: And the inhibition [30]?
A: 73%

Q: And the residual binding, % of control [31]?
A: 51%

Q: What about the inhibition [32] of the same molecule?
A: 45%

Q: And the residual binding, % of control [33]?
A: 65%

Q: And the inhibition [34]?
A: 72%

Q: What about the level, % of control [35] of the same molecule?
A: 7.4%

Q: And the inhibition [36]?
A: 53%

Q: And the level, % of control [37]?
A: 90%

Q: And the inhibition [38]?
A: 2.8%

Q: And the level, % of control [39]?
A: 0.5%

Q: What about the level, % of control [40] of the same molecule?
A: 2.5%

Q: What about the inhibition [41] of the same molecule?
A: 7.2%

Q: How did the residual binding, % of control [1] turn out when `CCN1CCN(Cc2ccc(NC(=O)c3ccc(C)c(C#Cc4cnc5[nH]ccc5c4)c3)cc2C(F)(F)F)CC1` was run?
A: 96%

Q: And the residual binding, % of control [2]?
A: 37%

Q: What about the residual binding, % of control [3] of the same molecule?
A: 100%

Q: And the residual binding, % of control [4]?
A: 53%

Q: What about the level, % of control [5] of the same molecule?
A: 3.8%

Q: What about the level, % of control [6] of the same molecule?
A: 0%

Q: And the residual binding, % of control [7]?
A: 1.1%

Q: And the level, % of control [8]?
A: 0%

Q: What about the residual binding, % of control [9] of the same molecule?
A: 100%

Q: What about the residual binding, % of control [10] of the same molecule?
A: 98%

Q: What about the residual binding, % of control [11] of the same molecule?
A: 0.35%

Q: And the residual binding, % of control [12]?
A: 0.1%

Q: And the level, % of control [13]?
A: 1.8%

Q: What about the residual binding, % of control [14] of the same molecule?
A: 59%

Q: And the inhibition [15]?
A: 9.5%

Q: What about the level, % of control [16] of the same molecule?
A: 24%

Q: What about the inhibition [17] of the same molecule?
A: 40%

Q: What about the residual binding, % of control [18] of the same molecule?
A: 0.15%

Q: What about the level, % of control [19] of the same molecule?
A: 2.2%

Q: And the residual binding, % of control [20]?
A: 0.25%

Q: What about the residual binding, % of control [21] of the same molecule?
A: 2.6%

Q: What about the residual binding, % of control [22] of the same molecule?
A: 4.6%

Q: And the level, % of control [23]?
A: 52%

Q: And the level, % of control [24]?
A: 1.8%

Q: What about the inhibition [25] of the same molecule?
A: 49%

Q: What about the inhibition [26] of the same molecule?
A: 12%

Q: And the inhibition [27]?
A: 0.7%

Q: What about the residual binding, % of control [28] of the same molecule?
A: 0.1%

Q: And the inhibition [29]?
A: 0.8%

Q: What about the inhibition [30] of the same molecule?
A: 9.2%

Q: And the residual binding, % of control [31]?
A: 54%

Q: And the inhibition [32]?
A: 11%

Q: And the residual binding, % of control [33]?
A: 30%

Q: What about the inhibition [34] of the same molecule?
A: 95%

Q: And the level, % of control [35]?
A: 7.8%

Q: What about the inhibition [36] of the same molecule?
A: 34%

Q: What about the level, % of control [37] of the same molecule?
A: 74%

Q: And the inhibition [38]?
A: 3.6%

Q: And the level, % of control [39]?
A: 0.8%

Q: And the level, % of control [40]?
A: 0%

Q: And the inhibition [41]?
A: 17%
